{"source": "patent US6414021B1", "about": "“Control of intraocular pressure during surgery” (Sucampo AG, priority 2000, dated 2002)", "key": {"[1]": {"system": "intraocular pressure in monkeys", "assay": "Intraocular pressure lowering effect by perfusion in the anterior chamber in monkeys (Example 1, 59 ng/mL)", "type": "in vivo, cynomolgus monkeys", "conditions": "for IOP decrease as compared with changes in IOP of the control after vehicle perfusion: 59 ng/mL, anterior chamber perfusion 50 μL/min for 1 hour, n=2", "experimental": "The intraocular pressure lowering effect of 15-keto acid of latanoprost (13,14-dihydro-15-keto-17-phenyl-18,19,20-trinor-PGF2α) by perfusion in the anterior chamber in monkeys was investigated.\nMale cynomolgus monkeys (body weight: 4.5-6.5 kg) were used. These monkeys were housed individually in cages for monkeys in a room which was maintained at room temperature of 24±1° C., relative humidity of 55±10%, ventilation of about 12 times/hour and a 12-hour light-dark cycle (fluorescent lighting: 8:00 a.m. to 8:00 p.m). The animals were given solid food for monkeys (PS, Oriental Yeast Co., Ltd.), vegetables and fruits, and allowed free access to tap water from an automatic dispenser. The healthy animals without abnormalities in the anterior segment of the eye were used in this study.\nIn the present study the solution containing 59 ng/mL of 15-keto acid of latanoprost was adjusted with commercially available intraocular perfusate (Opeguard-MA, Lot P-464, Senju Pharmaceutical Co., Ltd.). The control solution (vehicle) was the intraocular perfusate.\nThe animals were anesthetized by the injection intramuscularly with 5.0-7.5 mg/kg of ketamine hydrochloride (Ketalar®50, Sankyo Co., Ltd.), and restrained in a supine position. In operation and perfusion of the dosing solution in the anterior chamber, the anesthesia was maintained by intramuscular injection of 5 mg/kg of ketamine at interval of 30 minutes. […]\nAfter the ocular surface of monkeys was anesthetized by instillation of 0.4% oxybuprocaine hydrochloride (Benoxil® 0.4% solution, Santen Pharmaceutical Co., Ltd.) under i.m. systemic anesthesia with 5 mg/kg of ketamine hydrochloride, IOP was measured with an applanation pneumatonograph (Alcon Japan Ltd.). IOP was measured before perfusion of the test substance and 2 and 4 hours after perfusion (3 and 5 hours, respectively, after the start of the perfusion of the test substance). The mean value of the IOP measured twice at 30-minute interval before perfusion was used as IOP before perfusion of the test substance. […]"}, "[2]": {"system": "intraocular pressure in monkeys", "assay": "Effects on intraocular pressure by intra-anterior chamber perfusion with a lower dosage in monkeys (Example 2, 2 ng/mL)", "type": "in vivo, cynomologus monkeys", "conditions": "for IOP: perfusion 40 μL/min for 1 hour; for IOP / Difference in IOP between both treatments (IOP in 15-keto acid of latanoprost treatment minus IOP in vehicle treatment) / ΔIOP: Changes of IOP from pre-treatment value: mean ± S.E. of 7 animals", "experimental": "The effects on intraocular pressure by intra-anterior chamber perfusion with a lower dosage of 13,14-dihydro-15-keto-17-phenyl-18,19,20-trinor-PGF2 α (15-keto acid of latanoprost) were investigated in monkeys. One hour perfusion in the anterior chamber with 15-keto acid of latanoprost at the concentration (2 ng/mL) was carried out.\nThe solution containing 15-keto acid of latanoprost at 2 ng/mL was prepared with a commercially available intraocular perfusate (Opeguard MA, Senju Pharmaceutical Co. Ltd.) as a vehicle.\nSeven male cynomologus monkeys (Body weight: 3.9-6.0 kg) purchased from Kasyo Co., Ltd. were used. These monkeys were housed individually in cages in a room which was maintained at room temperature of 24±1° C., relative humidity of 55±10%, ventilation rate of about 12 times/hour and 12-hour light-dark cycle (fluorescent lighting: 8:00 to 20:00). The animals were given food pellets for monkeys (PS, Oriental Yeast Co., Ltd.), vegetables and fruits once a day, and allowed free access to tap water from an automatic dispenser. The healthy animals without abnormalities in the anterior segment of the eye were used in this study.\nThe animals were anesthetized by an intramuscular injection of 5.0-7.5 mg/kg of katamine hydrochloride (Ketalar 50, Sankyo Co., Ltd.), and restrained in a supine position. Two 30 G injection needles (one for infusion of the dosing solution and the other for discharge, Becton Dickinson and Co.) connected to polyethylene cannula (PE10, Becton Dickinson and Co.) were inserted into the anterior chamber from the temporal corneal ring of the eye ball. The anterior chamber was perfused with the 15-keto acid of latanoprost solution or the vehicle at a rate of 40 μL/min through the cannula for 1 hour using a syringe pump (Model 100, KD Scientific Inc.). During the perfusion, the anesthesia was maintained by intramuscular injection of 5.0 mg/kg ketamine hydrochloride every 20 minutes.\nThe animals were systemically anesthetized by an intramuscular injection of 5.0-7.5 mg/kg of ketamine hydrochloride (Ketalar 50, Sankyo Co., Ltd.), and the ocular surface was anesthetized by a instillation of 0.4% oxybuprocaine hydrochloride (Benoxil 0.4% solution, Santen Pharmaceutical Co., Ltd.). The animals were fixed in a supine position, and the intraocular pressure was measured by use of a pneumatonometer (Model 30 Classic, Mentor O & O.) before, and 3 and 5 hours after starting the perfusion (2 and 4 hours after stopping the perfusion, respectively).\nThe animals were used two times. The same eye of each animal was used for both treatments in a crossover way with a recovery period for at least 12 days.\nThe data were statistically analyzed with Student's t-test or paired t-test. P values less than 0.05 were considered to be statistically significant."}, "[3]": {"conditions": "2 ng/mL, 3 hours after starting perfusion"}, "[4]": {"conditions": "2 ng/mL, 5 hours after starting perfusion"}}, "data": [{"smiles": "O=C(O)CCC/C=C\\C[C@@H]1[C@@H](CCC(=O)CCc2ccccc2)[C@H](O)C[C@@H]1O", "note": "[15-keto acid of latanoprost, 13,14-dihydro-15-keto-17-phenyl-18,19,20-trinor-PGF2α]", "values": [{"measurement": "IOP decrease as compared with changes in IOP of the control after vehicle perfusion", "setting": "[1]; 3 hours after the start of perfusion", "result": 2.8, "unit": "mmHg"}, {"measurement": "IOP decrease as compared with changes in IOP of the control after vehicle perfusion", "setting": "[1]; 5 hours after the start of perfusion", "result": 2.3, "unit": "mmHg"}, {"measurement": "effect on intraocular pressure (in words)", "setting": "[1]; perfusion in the anterior chamber, monkeys", "result": "intraocular pressure was lowered"}, {"measurement": "effect on intraocular pressure (in words)", "setting": "[2]; 2 ng/mL solution, intra-anterior chamber perfusion", "result": "significant reduction in the intraocular pressure"}, {"measurement": "IOP", "setting": "[2]; [3]", "result": "23.1 ± 1.3", "unit": "mmHg"}, {"measurement": "IOP", "setting": "[2]; [4]", "result": "24.4 ± 0.7", "unit": "mmHg"}, {"measurement": "IOP", "setting": "[2]; 2 ng/mL, before perfusion", "result": "24.1 ± 0.8", "unit": "mmHg"}, {"measurement": "Difference in IOP between both treatments (IOP in 15-keto acid of latanoprost treatment minus IOP in vehicle treatment)", "setting": "[2]; [3]", "result": "−2.9 ± 1.1", "unit": "mmHg"}, {"measurement": "ΔIOP: Changes of IOP from pre-treatment value", "setting": "[2]; [3]", "result": "−1.0 ± 0.7", "unit": "mmHg"}, {"measurement": "lowering of intraocular pressure as compared with the pre-treatment value", "setting": "[2]; 2 ng/mL, 3 hours after starting the perfusion", "result": 1.0, "unit": "mmHg"}, {"measurement": "Difference in IOP between both treatments (IOP in 15-keto acid of latanoprost treatment minus IOP in vehicle treatment)", "setting": "[2]; [4]", "result": "0.0 ± 1.0", "unit": "mmHg"}, {"measurement": "ΔIOP: Changes of IOP from pre-treatment value", "setting": "[2]; [4]", "result": "0.3 ± 0.7", "unit": "mmHg"}, {"measurement": "Difference in IOP between both treatments (IOP in 15-keto acid of latanoprost treatment minus IOP in vehicle treatment)", "setting": "[2]; 2 ng/mL, before perfusion", "result": "0.7 ± 1.1", "unit": "mmHg"}]}]}
